In patent US7050620B2, “Method of assaying shape and structural features in cells” (priority 2001, dated 2006):
“Also recorded” adds a separate entry of the source.

Assays:
[1] = tested on: IAR20 PC1 cells; assay: Factor-based classification of cell shape phenotype from interference contours (predicted time in culture); parameters: species or system rat; details: for shift of signature-type (mean predicted time) versus control, in words / mean predicted time (signature-type, factor-based classification): 2 hr exposure; for shift of signature-type (mean predicted time) versus control, in words: taxanes 6–18 μM, baccatin III 9 μM, colchicine 2 μM; for factors used in classification whose values changed significantly: 2 h exposure; for mean predicted time (signature-type, factor-based classification): FIG. 1 experiment, 2 μM colchicine, 18 μM paclitaxel, 10 μM valinomycin, 0.5 μM gramicidin D, 200 μM quinidine, control 283 days; for factor #12 value (slope at which cell rises from substratum, rounding-up): versus control / direction relative to signature-type
Description: (§1) Cell lines and interference preparations. Equations were developed to define changes in the signature-type for two epithelial cell lines that underwent transformation over a prolonged time of in vivo culture. […] IAR20 PC1 was a clonal derivative of a line called IAR20, which was cultured from liver cells of a BD-VI rat. […] Liver cells were grown in William's E medium supplemented with 10% fetal bovine serum, whereas the tracheal cells were grown in Waymouth's medium containing fetal bovine serum plus 0.1 μg/ml insulin and 0.1 μg /ml hydrocortisone. The cells were maintained and subcultured as described elsewhere (1,3). For experiments with insulin supplementation, insulin concentrations were raised to 1 and 10 μg/ml and maintained for two passages before the cells were used.
Information about shape features was derived from interference images. These were generated by culturing cells on anodized tantalum substrates, and then imaging them in reflected light. Cells were plated on substrates in replicate dishes, left overnight, and then exposed to experimental agents or to the solvent vehicle alone. After incubation with the agents for 2–5 h, samples were recovered, fixed in buffered 3% glutaraldehyde (pH 7.3), and air-dried. Randomly selected cells were imaged in a Zeiss Universal microscope, and the outlines of their three lowermost interference contours were digitized. […] Each experimental treatment was represented by a total of 50 cells.
(§2) Classification procedures. The classification methods employed a subset of the contour shape variables. Each 50-cell sample was submitted to multiple linear regression analysis for classification alongside a group of cells representing normal and transformed reference samples. The latter were obtained from the lines that underwent transformation as described above. Because the signature-type value was assigned relative to these samples, the solutions were in units of predicted time in culture. After obtaining such a value for each cell in an experiment, the differences in mean predicted times for treated and control cells were calculated. The sum of the squared standard deviations, divided by the number of observations, n, was used to compute the confidence limits of the mean: (s1)^2/n+(s2)^2/n Where s was the standard deviation for each sample. Dividing the difference between the means by the square root of the above expression yields a value that can be related to the degree of confidence, 1-α. […] This value was equivalent to a probability that the two samples differed of P≦0.02.
(§3) Again, classification of samples from experiments employed multiple linear regression methods, based on factors scores rather than on contour shape variables. Factors were generated by combining into a single database, the contour shape variables from highly malignant epithelial cells and precancerous lines that change progressively, eventually become neoplastic. […] Principal components were extracted and transformed by a pattern of rotation to produce latent factors, which described variances that had thereby been rendered orthogonal (8). Factor scores for each cell represented in the database to be estimated. These factor scores from known IAR20 PC1 or 1000 W cells are used as a reference to classify data from short-term experiments on the respective samples. The factors used in classification were selected by the SAS REG procedure (8). […] Predicted time-in-culture values were obtained by submitting the experimental cells to analysis, as described above for simple variables. The statistical significance of differences among sample means within each experiment was determined by the Duncan multiple range test.

[2] = tested on: 1000 W cells; assay: as above; parameters: species or system rat; details: for predicted time (factor-based classification): time zero 612 days; for number of the eight contour shape variables highly correlated with factor #4 that changed significantly: 1000 W cells, FIG. 7—Table 3; for change of signature-type versus control, in words: paclitaxel 2-h or 5 h exposure, insulin 0.1–10 μg/ml
Description: as §1, with “Equations were developed to define changes in the signature-type for two epithelial cell lines that underwent transformation over a prolonged time of in vivo culture.” left out
Information about shape features was derived from interference images. These were generated by culturing cells on anodized tantalum substrates, and then imaging them in reflected light. Cells were plated on substrates in replicate dishes, left overnight, and then exposed to experimental agents or to the solvent vehicle alone. […] Randomly selected cells were imaged in a Zeiss Universal microscope, and the outlines of their three lowermost interference contours were digitized. […] Each experimental treatment was represented by a total of 50 cells.
as §2, §3

[3] = tested on: IAR20 PC1 cells; assay: Indirect immunofluorescence localization of beta-tubulin (microtubule organization); assay type: cell-based, rat; details: for MT organization / arrangement, in words: exposure 2–5 h; for cells with MT bundles on both sides of the nucleus: taxane alone or IC with 2 μM colchicine
Description: Immunofluorescene localization of β-tubulin. IAR20 PC1 cells were subcultured onto sterile glass cover slips as described above. Replicate samples were exposed to test agents for 2–5 h alongside controls, and then fixed and left in methanol at −70° C. until used for the immunofluorescence procedure. To visualize arrays of MTs, cells were exposed to a mouse monoclonal anti-β tubulin antibody (Nycomed Amersham, Little Chalfont, Buckinghamshire, UK), made up at a 1:300 dilution. We used a 1:100 dilution of P3×63 monoclonal antibody from P3 myeloma (generous gift from J. Lessard) as a non-specific control. The secondary antibody, […] goat anti-mouse immunoglobulin G (US Biochemical Corp., Cleveland), was used at a dilution of 1:2000. Cover slips were processed and then mounted on a slide in a solution of 1,4-diazobicyclo[2.2.2]octane (Sigma) made up to 25 mg/ml in glycerol. The samples were photographed on a Zeiss Axiophot microscope equipped with a 63x Planapo lens. Images were recorded on Kodak Tri-X or T-Max film. All of the drugs, including paclitaxel, cephalomannine, colchicine, and baccatin III, were studied to see if they affected the arrangement of MTs. […] MT arrangement was unaltered after treatment with the above-mentioned ionophores and transport inhibitors.

CC(=O)O[C@H]1C(=O)[C@]2(C)CC[C@H]3OC[C@@]3(OC(C)=O)[C@H]2[C@H](OC(=O)c2ccccc2)[C@]2(O)C[C@H](OC(=O)[C@H](O)[C@@H](NC(=O)c3ccccc3)c3ccccc3)C(C)=C1C2(C)C [7-deoxytaxol]
shift of signature-type (mean predicted time) versus control, in words [1]: failed to shift

CCCCCCCCCCCCCC(=O)O[C@@H]1[C@@H](C)[C@@]2(O)[C@@H](C=C(CO)C[C@]3(O)C(=O)C(C)=C[C@@H]23)[C@@H]2C(C)(C)[C@]12OC(C)=O [PMA, phorbol 12-myristate 13-acetate]
predicted time (factor-based classification) ([2]; 30 min after PMA exposure): 648 days
predicted time (factor-based classification) ([2]; 2 h after PMA exposure): 663 days
predicted time (factor-based classification) ([2]; 5 h after PMA exposure): 668 days
predicted time (factor-based classification) ([2]; 10 h after PMA exposure): 604 days
factor #1 value ([2]; PMA time course): significantly elevated for a brief period after exposure
factor #2 value ([2]; PMA, 10-h time point): significantly reduced below control
factor #7 value (knob-shaped projections on the cell edge) ([2]; PMA, one experiment): adopted values like those of transformed cells
factor #16 value (size variability in projections at the cell edge) ([2]; PMA, one experiment): adopted values like those of transformed cells
factor #4 value ([2]; PMA, times between 0.5 and 5 h): indistinguishable from those of control samples
factor #12 value ([2]; PMA, times between 0.5 and 5 h): indistinguishable from those of control samples

CC(=O)O[C@H]1C(=O)[C@@]2(C)[C@H]([C@H](OC(=O)c3ccccc3)[C@]3(O)C[C@H](O)C(C)=C1C3(C)C)[C@]1(OC(C)=O)CO[C@@H]1C[C@@H]2O [baccatin III, Baccatin III]
MT organization / arrangement, in words [3]: little noticeable effect
shift of signature-type (mean predicted time) versus control, in words [1]: failed to shift

C/C=C(\C)C(=O)N[C@@H](c1ccccc1)[C@@H](O)C(=O)O[C@H]1C[C@@]2(O)[C@@H](OC(=O)c3ccccc3)[C@@H]3[C@]4(OC(C)=O)CO[C@@H]4C[C@H](O)[C@@]3(C)C(=O)[C@H](OC(C)=O)C(=C1C)C2(C)C [cephalomannine]
MT organization / arrangement, in words [3]: caused MTs to aggregate in the form of arc-shaped bundles
cells with MT bundles on both sides of the nucleus [3]: 71%
shift of signature-type (mean predicted time) versus control, in words [1]: failed to shift

CCN(CC)CCCC(C)Nc1ccnc2cc(Cl)ccc12 (stereo not drawn) [chloroquine]
factors used in classification whose values changed significantly [1]: did not significantly change any of the factors
mean predicted time (signature-type, factor-based classification) [1]: 315 days

COc1cc2c(c(OC)c1OC)-c1ccc(OC)c(=O)cc1[C@@H](NC(C)=O)CC2 [colchicine]
mean predicted time ([2]; 2 μM colchicine for 2 hrs, cells grown in 0.1 μg/ml insulin, untreated 655 days): 737 days
mean predicted time ([2]; 2 μM colchicine for 2 hrs, cells grown in 1 μg/ml insulin, untreated 638 days): 687 days
mean predicted time ([2]; 2 μM colchicine for 2 hrs, cells grown in 10 μg/ml insulin, untreated 637 days): 673 days
factor #1 value (massive extensions or invaginations in the two uppermost contours) ([2]; colchicine exposure): increased
average solution of predicted time ([2]; second experiment, colchicine-treated sample, control 636 days): 689 days
MT organization / arrangement, in words [3]: complete depolymerization of MTs
mean predicted time (signature-type, factor-based classification) [1]: 338 days
factor #4 value (filopodia / sharp projections at cell edge) ([1]; versus control): decreased
factor #7 value (knob-like structures at the cell edge) ([1]; versus control): increased
factor #12 value (slope at which cell rises from substratum, rounding-up) [1]: mimicked; also recorded: increased

CC(=O)O[C@H]1C(=O)[C@@]2(C)[C@H]([C@H](OC(=O)c3ccccc3)[C@]3(O)C[C@H](OC(=O)[C@H](O)[C@@H](NC(=O)c4ccccc4)c4ccccc4)C(C)=C1C3(C)C)[C@]1(OC(C)=O)CO[C@@H]1C[C@@H]2O [paclitaxel]
number of the eight contour shape variables highly correlated with factor #4 that changed significantly [2]: six of their values differed significantly
number of the eight contour shape variables highly correlated with factor #4 that changed significantly ([2]; listed as Paclitaxel): six out of the eight
change of signature-type versus control, in words [2]: failed to elicit any change
MT organization / arrangement, in words [3]: large bundles of MTs
cells with MT bundles on both sides of the nucleus [3]: 56%
factors used in classification whose values changed significantly [1]: changes in factors #1, #7, and #12
shift of signature-type (mean predicted time) versus control, in words [1]: failed to promote the signature-type
mean predicted time (signature-type, factor-based classification) [1]: 304 days
factors whose values changed ([1]; paclitaxel at a high concentration over a 4-h period): changes in #1, #7, #8, and #13
factor #12 value (slope at which cell rises from substratum, rounding-up) [1]: counteracted

CC(C)[C@@H]1NC(=O)[C@H](C)OC(=O)[C@@H](C(C)C)NC(=O)[C@@H](C(C)C)OC(=O)[C@H](C(C)C)NC(=O)[C@H](C)OC(=O)[C@@H](C(C)C)NC(=O)[C@@H](C(C)C)OC(=O)[C@H](C(C)C)NC(=O)[C@H](C)OC(=O)[C@@H](C(C)C)NC(=O)[C@@H](C(C)C)OC1=O [valinomycin]
mean predicted time (signature-type, factor-based classification) [1]: 336 days
factor #4 value (filopodia / sharp projections at cell edge) ([1]; versus control): change in factor #4
factor #8 value (sharp features in the second contour) ([1]; versus control, monensin 24 μM): affected

gramicidin D
mean predicted time (signature-type, factor-based classification) [1]: 387 days
factor #4 value (filopodia / sharp projections at cell edge) ([1]; versus control): change in factor #4
factor #7 value (knob-like structures at the cell edge) ([1]; versus control): increase

insulin
mean predicted time ([2]; grown in 0.1 μg/ml insulin, no colchicine): 655 days
mean predicted time ([2]; grown in 1 μg/ml insulin, no colchicine): 638 days
mean predicted time ([2]; grown in 10 μg/ml insulin, no colchicine): 637 days
change of signature-type versus control, in words [2]: no significant differences
